The METLIN SMRT retention time set (Domingo-Almenara et al. 2019)

Assay: gradient 5% acetonitrile 3 min, to 50% in 2 min, to 85% in 15 min, held 3 min, 100 µL/min
Details: column: Zorbax Extend-C18 2.1 x 50 mm; eluents: water / acetonitrile, 0.1% formic acid
Summary of the method: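 Mixtures of ~100 pure standards were chromatographed on a Zorbax Extend-C18 column (2.1 × 50 mm, 1.8 μm) at 100 μL/min using water and acetonitrile, each with 0.1% formic acid. Detection used a quadrupole time-of-flight mass spectrometer in positive and negative ionization mode, and data collection spanned 3 months. Retention time was obtained from adduct peaks picked computationally and each checked manually.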

SMILES | RP-LC retention time
CCc1nc2ccccc2c(=O)n1Cc1noc(-c2cc(OC)c(OC)c(OC)c2)n1 | 919 s
Cn1cc(-c2ccccc2)cc1C(=O)NCCCN1CCOCC1 | 636 s
O=C(Nc1ccccc1C(F)(F)F)N1CCN(c2ccc(=O)n(-c3ccc(F)cc3)n2)CC1 | 794 s
COC(=O)c1ncn2c1C(=O)N(Cc1ccccc1Cl)C(C)(C(=O)NC1CCCCC1)C2 (stereo not given) | 804 s
CCOC(=O)CNC(=O)NC(C(=O)N1CCc2ccccc21)c1ccccc1 (stereo not given) | 832 s
CCN1C(=O)C2(CCN(C(=O)c3ccnn3CC)CC2)c2ccccc21 | 789 s
COCCN1CCn2cc(S(=O)(=O)Nc3ccc(C)c(C)c3)cc2C1=O | 745 s
c1ccc(CN2CCCC(c3n[nH]c(C4CC4)n3)C2)nc1 (stereo not given) | 465 s
CCNC(=O)C1CCc2sc(C(=O)N3CCCCC3)cc2C1 (stereo not given) | 694 s
COC(=O)c1ccc(NC(=O)C(=O)NCC2CCN(Cc3ccco3)CC2)cc1 | 573 s
Cc1ccc(N(C)S(=O)(=O)c2c(C)sc(C)c2-c2cc(C(F)(F)F)on2)cc1C | 1370 s
O=C(CCOc1ccc(F)cc1)N1CCN(Cc2ccccc2)CC1 | 575 s
O=C(C1CCCN(c2nnc(-n3cccc3)s2)C1)N1CCN(c2ccccc2)CC1 (stereo not given) | 931 s
Cc1cc(Cl)ccc1S(=O)(=O)N1CCC2(CCC(CN3CCN(C)CC3)O2)CC1 (stereo not given) | 642 s
Cc1cccc(NC(=O)Cn2nc(N(C)C)c3ccccc3c2=O)c1C | 849 s
COc1cccc(Nc2cc(C)nc3ccnn23)c1 | 610 s
O=C(Nc1ccc2c(c1)CN(S(=O)(=O)c1ccccc1)CC2)c1cc(-c2ccco2)on1 | 1010 s
O=C(Nc1ccc(Br)cc1F)C1CCCN(c2cnc3ccccc3n2)C1 (stereo not given) | 1070 s
COc1ccc(OC)c(NC(=O)c2cc(NC(=O)C(C)C)cc3nc(C)ccc23)c1 | 663 s
COc1ccc(-c2nc(C3CC(=O)N(c4ccc(F)cc4)C3)no2)cc1 (stereo not given) | 961 s
CCOc1ccccc1NC(=O)C1CCN(S(=O)(=O)c2ccc3c(c2)sc(=O)n3CC)CC1 | 922 s
CCc1cc(=O)n(CC(=O)Nc2ccc(C(F)(F)F)cc2)c(N2CCOCC2)n1 | 849 s
CCOc1ccccc1-c1csc(NC(=O)Cc2csc(COc3cc(C)ccc3C)n2)n1 | 1360 s

SMILES | RP-LC retention time
O=C(Cn1ccc2ccccc21)Nc1ccc2cn[nH]c2c1 | 726 s
COc1cccc2c1OC1(C)CC2NC(=O)N1c1cccc(C(=O)O)c1 (stereo not given) | 645 s
COc1ccc(-c2nc3nc(C)cc(C)n3c2Nc2c(C)cccc2C)cc1 | 766 s
CCc1ccccc1NC(=O)Cn1c(N)nc(COC)cc1=O | 598 s
CCn1c(=O)c2cc(C(=O)Nc3ccc(OC)c(OC)c3)nn2c2ccccc21 | 837 s
COC(=O)C(NC(=O)N1CCCn2nc(-c3cccnc3)cc2C1)c1ccccc1 (stereo not given) | 616 s
Cc1nnc(N2CCC(C(=O)NCCCN3CCCC3=O)CC2)c2nn(-c3ccccc3)c(C)c12 | 622 s
COc1ccc(NC(=O)c2cn(-c3cc(N4CCCCC4)ncn3)cn2)cc1Cl | 984 s
CCCCC(=O)Nc1ccc(OCc2cc(C(=O)NC3CC3)no2)cc1 | 798 s
O=C(c1cc2ccccc2[nH]1)N1CCN(c2ccc(=O)n(-c3cccc(Cl)c3)n2)CC1 | 926 s
Cn1nc2n(c1=O)CCN(C(=O)c1ccn[nH]1)CC2 | 552 s
Cc1ccc(S(=O)(=O)CCc2noc(C(=O)NCCCN3CCC(C)CC3)n2)cc1 | 637 s
COc1ccc(NC(=O)N(C)CCc2noc(COc3ccc(F)cc3)n2)cc1OC | 801 s
O=C(CSc1ccc(N2CCCC(C(=O)NC3CC3)C2)nn1)NCc1cccs1 (stereo not given) | 593 s
CC(C)n1cnc(S(=O)(=O)N2CCCC(C(=O)Nc3ccc(Br)cc3F)C2)c1 (stereo not given) | 893 s
COC(=O)c1cnc2nc(C)ccc2c1Nc1ccccc1 | 627 s
Cc1ccc(C2c3[nH]c4ccccc4c3CCN2C(=O)C2CCC2)cc1 (stereo not given) | 1200 s
Cc1cccc(S(=O)(=O)N(C)CC2(C)CCOCC2)c1 | 918 s
CC(C)CNC(=O)N1CC(Oc2ccc(-c3nc(-c4ccccc4)no3)cc2)C1 | 1060 s
CCc1sc(NC(=O)CS(=O)(=O)c2ccc(C)cc2)nc1-c1ccccc1 | 1040 s
O=C(CSC1CCc2ccccc2NC1=O)Nc1ccccc1 (stereo not given) | 777 s
COc1ccc(-c2c(C)noc2NC(C)=O)cc1S(=O)(=O)N1CCN(C(=O)c2ccco2)CC1 | 670 s
